Key:
[1] = molecular target: Prostaglandin G/H synthase 2 (Homo sapiens) (UniProt P35354); test: Inhibition of Cyclooxygenase COX-2 at compound concentration of 10.0 uM in the Eurofins-Panlabs enzyme assay (Eurofins_assay_118010); design: substrate with concentration 0.3 uM Arachidonic acid, incubation time 15 min, incubation temperature 37 C; settings: Compound concentration 10.0 uM
[2] = molecular target: T1, Muscarinic acetylcholine receptor M2 (Homo sapiens) (UniProt P08172); settings: Compound concentration 10.0 uM
T1 sequence (whole entry): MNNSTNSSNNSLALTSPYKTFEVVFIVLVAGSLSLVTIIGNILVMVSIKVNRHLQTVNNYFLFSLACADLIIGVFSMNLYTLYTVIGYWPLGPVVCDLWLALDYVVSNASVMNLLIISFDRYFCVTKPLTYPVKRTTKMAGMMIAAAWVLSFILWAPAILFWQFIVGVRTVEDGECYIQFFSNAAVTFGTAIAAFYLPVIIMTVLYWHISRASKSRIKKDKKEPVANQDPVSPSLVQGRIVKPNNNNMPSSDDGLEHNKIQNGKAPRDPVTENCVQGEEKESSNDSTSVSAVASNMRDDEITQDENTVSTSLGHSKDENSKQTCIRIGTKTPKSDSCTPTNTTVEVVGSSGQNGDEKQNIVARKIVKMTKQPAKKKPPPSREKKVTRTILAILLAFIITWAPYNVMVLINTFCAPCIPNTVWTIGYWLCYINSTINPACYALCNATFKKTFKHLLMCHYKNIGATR

Chain of Prostaglandin G/H synthase 2 (Homo sapiens) (P35354 whole entry): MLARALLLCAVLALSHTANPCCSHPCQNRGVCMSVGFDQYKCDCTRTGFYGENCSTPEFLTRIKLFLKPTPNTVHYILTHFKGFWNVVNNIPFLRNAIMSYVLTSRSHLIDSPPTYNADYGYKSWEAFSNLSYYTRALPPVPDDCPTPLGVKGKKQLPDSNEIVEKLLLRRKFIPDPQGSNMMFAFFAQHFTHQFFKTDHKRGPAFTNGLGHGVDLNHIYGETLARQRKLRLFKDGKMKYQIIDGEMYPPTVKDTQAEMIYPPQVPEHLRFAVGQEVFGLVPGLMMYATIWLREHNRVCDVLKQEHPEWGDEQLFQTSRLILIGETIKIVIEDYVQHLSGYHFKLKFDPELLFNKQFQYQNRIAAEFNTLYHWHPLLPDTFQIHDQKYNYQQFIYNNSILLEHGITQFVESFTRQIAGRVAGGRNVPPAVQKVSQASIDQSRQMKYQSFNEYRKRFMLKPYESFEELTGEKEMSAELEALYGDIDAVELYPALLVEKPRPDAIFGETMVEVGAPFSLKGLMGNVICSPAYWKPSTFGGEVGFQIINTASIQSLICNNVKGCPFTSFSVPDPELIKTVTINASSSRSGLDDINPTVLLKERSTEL

Cc1cc(OC2CCS(=O)(=O)CC2)cc(C)c1-c1cccc(COc2ccc(CCC(=O)O)c(F)c2)c1 was tested, and the inhibition [1] was -5% and the inhibition [2] was 2.31%.

From ChEMBL document CHEMBL5058642, “Data for DCP probe TP-051” (2022)
